Like-named read-outs stand apart in the source and are kept apart here.
Key:
[1] = First-in-human trial: pharmacokinetics in plasma and urine; type: in vivo; details: for AUC(0-t): read-out: AUC24hr
Method: Blood and urine samples were collected at prespecified time points for 24 h after initial dose and at days 2–3 (S2) and after multiple doses on days 3–4 (S1) and 22–23 (S3) across dose levels. Predose samples were collected on days 8, 15 and 22. Urine samples were collected during cycle 1.
Descriptive statistics were used to summarise the safety data, including all patients who received at least one dose of OSI-027. All patients who completed the pharmacokinetic sampling were included in the PK analyses, which used descriptive statistics to summarise AUC0–∞, AUC0–t, Cmax, Clast, Tmax, Tlast, %AUC extrapolated, T1/2, clearance (Cl/F) and volume of distribution (Vz/F). Exploratory analysis were planned to correlate pharmacodynamics and pharmacokinetics. Response to treatment was evaluated according to Response Evaluation Criteria in Solid Tumors (RECIST) ([Therasse et al, 2000]).

[2] = monkeys; preclinical; cited from earlier work
[3] = human, plasma, oral, 35 mg, Schedule 3, 35 mg, Day 22, N=4, median (range)
[4] = human, plasma, oral, 40 mg, Schedule 2, 40 mg, N=3, median (range)
[5] = human, plasma, oral, 40 mg, Schedule 3, 40mg, Day 1, N=6, median (range)
[6] = human, plasma, oral, 40 mg, Schedule 3, 40mg, Day 22, N=4, median (range)
[7] = human, plasma, oral, 45 mg, Schedule 1, 45 mg, Day 1, N=3, median (range)
[8] = human, plasma, oral, 45 mg, Schedule 1, 45 mg, Day 3, N=3, median (range)
[9] = human, plasma, oral, 50 mg, Schedule 3, 50 mg, Day 1, N=3, median (range)
[10] = human, plasma, oral, 50 mg, Schedule 3, 50 mg, Day 22, N=1
[11] = human, plasma, oral, 65 mg, Schedule 1, 65 mg, Day 1, N=3, median (range)
[12] = human, plasma, oral, 65 mg, Schedule 1, 65 mg, Day 3, N=3, median (range)
[13] = human, plasma, oral, 80 mg, Schedule 2, 80 mg, N=4, median (range)
[14] = human, plasma, oral, 90 mg, Schedule 1, 90 mg, Day 1, N=14, median (range)
[15] = human, plasma, oral, 90 mg, Schedule 1, 90 mg, Day 3, N=14, median (range)
[16] = human, plasma, oral, 120 mg, Schedule 1, 120 mg, Day 1, N=14, median (range)
[17] = human, plasma, oral, 120 mg, Schedule 1, 120 mg, Day 3, N=13, median (range)
[18] = human, plasma, oral, 160 mg, Schedule 1, 160 mg, Day 1, N=5, median (range)
[19] = human, plasma, oral, 160 mg, Schedule 1, 160 mg, Day 3, N=5, median (range)
[20] = human, plasma, oral, 160 mg, Schedule 2, 160 mg, N=3, median (range)
[21] = human, plasma, oral, 240 mg, Schedule 2, 240mg, N=15, median (range)

With `COc1cccc2cc(-c3nc([C@H]4CC[C@H](C(=O)O)CC4)n4ncnc(N)c34)[nH]c12` [OSI-027] the Cmax [1, 3] was 2300 ng/mL, the AUC(0-t) [1, 3] was 31200 ng·h/mL and the half-life ([1]; human, plasma, oral, 35 mg, Schedule 3, 35 mg, Day 22, N=4, median (range), read-out: T1/2 (converted)) was 11.1 h. It also gave an AUC(0-inf) [1, 4] of 28600 ng·h/mL, a Cmax [1, 4] of 2510 ng/mL and a half-life ([1]; human, plasma, oral, 40 mg, Schedule 2, 40 mg, N=3, median (range), read-out: T1/2 (converted)) of 12.4 h. The AUC(0-inf) [1, 5] was 77100 ng·h/mL, the Cmax [1, 5] was 3140 ng/mL and the half-life ([1]; human, plasma, oral, 40 mg, Schedule 3, 40mg, Day 1, N=6, median (range), read-out: T1/2 (converted)) was 17.8 h. The Cmax [1, 6] was 3000 ng/mL, the AUC(0-t) [1, 6] was 50100 ng·h/mL and the half-life ([1]; human, plasma, oral, 40 mg, Schedule 3, 40mg, Day 22, N=4, median (range), read-out: T1/2 (converted)) was 15.9 h. The AUC(0-inf) [1, 7] was 31100 ng·h/mL, the Cmax [1, 7] was 2770 ng/mL and the half-life ([1]; human, plasma, oral, 45 mg, Schedule 1, 45 mg, Day 1, N=3, median (range), read-out: T1/2 (converted)) was 7.65 h. For the same molecule, the Cmax [1, 8] was 3850 ng/mL, the AUC(0-t) [1, 8] was 35200 ng·h/mL and the half-life ([1]; human, plasma, oral, 45 mg, Schedule 1, 45 mg, Day 3, N=3, median (range), read-out: T1/2 (converted)) was 9.14 h. The AUC(0-inf) [1, 9] was 46200 ng·h/mL, the Cmax [1, 9] was 3040 ng/mL and the half-life ([1]; human, plasma, oral, 50 mg, Schedule 3, 50 mg, Day 1, N=3, median (range), read-out: T1/2 (converted)) was 10.3 h. The Cmax [1, 10] was 1110 ng/mL, the AUC(0-t) [1, 10] was 17200 ng·h/mL and the AUC(0-inf) [1, 11] was 50000 ng·h/mL. For the same molecule, the Cmax [1, 11] was 4750 ng/mL, the half-life ([1]; human, plasma, oral, 65 mg, Schedule 1, 65 mg, Day 1, N=3, median (range), read-out: T1/2 (converted)) was 7.01 h and the Cmax [1, 12] was 5550 ng/mL. For the same molecule, the AUC(0-t) [1, 12] was 64400 ng·h/mL, the half-life ([1]; human, plasma, oral, 65 mg, Schedule 1, 65 mg, Day 3, N=3, median (range), read-out: T1/2 (converted)) was 8.46 h and the AUC(0-inf) [1, 13] was 52600 ng·h/mL. It also gave a Cmax [1, 13] of 3890 ng/mL, a half-life ([1]; human, plasma, oral, 80 mg, Schedule 2, 80 mg, N=4, median (range), read-out: T1/2 (converted)) of 9.22 h and an AUC(0-inf) [1, 14] of 90300 ng·h/mL. It also gave a Cmax [1, 14] of 5440 ng/mL, a half-life ([1]; human, plasma, oral, 90 mg, Schedule 1, 90 mg, Day 1, N=14, median (range), read-out: T1/2 (converted)) of 12.1 h and a Cmax [1, 15] of 7010 ng/mL. The AUC(0-t) [1, 15] was 69600 ng·h/mL, the half-life ([1]; human, plasma, oral, 90 mg, Schedule 1, 90 mg, Day 3, N=14, median (range), read-out: T1/2 (converted)) was 12 h and the AUC(0-inf) [1, 16] was 87600 ng·h/mL. It also gave a Cmax [1, 16] of 5590 ng/mL, a half-life ([1]; human, plasma, oral, 120 mg, Schedule 1, 120 mg, Day 1, N=14, median (range), read-out: T1/2 (converted)) of 10.2 h and a Cmax [1, 17] of 5450 ng/mL. It also gave an AUC(0-t) [1, 17] of 54500 ng·h/mL, a half-life ([1]; human, plasma, oral, 120 mg, Schedule 1, 120 mg, Day 3, N=13, median (range), read-out: T1/2 (converted)) of 12.8 h and an AUC(0-inf) [1, 18] of 131000 ng·h/mL. The Cmax [1, 18] was 9330 ng/mL, the half-life ([1]; human, plasma, oral, 160 mg, Schedule 1, 160 mg, Day 1, N=5, median (range), read-out: T1/2 (converted)) was 10.3 h and the Cmax [1, 19] was 11000 ng/mL. It also gave an AUC(0-t) [1, 19] of 106000 ng·h/mL, a half-life ([1]; human, plasma, oral, 160 mg, Schedule 1, 160 mg, Day 3, N=5, median (range), read-out: T1/2 (converted)) of 11.9 h and an AUC(0-inf) [1, 20] of 267000 ng·h/mL. It also gave a Cmax [1, 20] of 7620 ng/mL, a half-life ([1]; human, plasma, oral, 160 mg, Schedule 2, 160 mg, N=3, median (range), read-out: T1/2 (converted)) of 24.7 h and an AUC(0-inf) [1, 21] of 125000 ng·h/mL. The Cmax [1, 21] was 8780 ng/mL, the half-life ([1]; human, plasma, oral, 240 mg, Schedule 2, 240mg, N=15, median (range), read-out: T1/2 (converted)) was 13.8 h and the half-life ([1]; human, plasma, oral, patients, estimate, based on the weekly dose schedule, read-out: half-life (converted)) was roughly 14 h. The half-life ([1]; human, plasma, oral, patients, range over groups, read-out: half-life, range) was 8 to 25 h, the Tmax ([1]; human, plasma, oral, patients, across dose levels) was no more than 4 h and the exposure versus dose ([1]; patients) was “dose proportional”. For the same molecule, the “urinary excretion of unchanged OSI-027, range” value ([1]; patients) was 1–7%, the half-life ([1]; patients, estimate, based on the weekly dose schedule) was 14 h and the “maximum tolerated dose (MTD) in toxicology studies” value [2] was 2.5 mg kg^−1 per day.
